Patent US20170050957A1, “4-AMINO-6-(HETEROCYCLIC)PICOLINATES AND 6-AMINO-2-(HETEROCYCLIC)PYRIMIDINE-4-CARBOXYLATES AND THEIR USE AS HERBICIDES” (Dow AgroSciences LLC, priority 2013, published 2017)
Where two headings read alike, the source gives them in different places.

Key:
[1] = tested on: Key Broadleaf Weed and Crop Species; assay: Post-emergent Test II herbicidal activity (Table 15); type: in vivo; conditions: post-emergence, 336 h, 14 d; for pest or weed control at 35 g/ha: 35 g ai/ha; for pest or weed control at 70 g/ha: 70 g ai/ha; for pest or weed control at 140 g/ha: 140 g ai/ha
In short: (§1)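 Plants at first-second true leaf stage, grown 7-21 d in greenhouse (~15 h photoperiod, 23-29 °C day), were track-sprayed at 187 L/ha with compound in acetone/DMSO/water/isopropanol/crop oil/Triton X-155 at a high rate plus 1/2× to 1/16× dilutions. Injury scored visually after 14 d versus untreated plants, 0 (none) to 100% (complete kill).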

[2] = tested on: Key Grass and Sedge Weeds as well as Grass Crops; assay: Post-emergent Test II herbicidal activity (Table 16); type: in vivo; conditions: post-emergence, 336 h, 14 d; for pest or weed control at 35 g/ha: 35 g ai/ha; for pest or weed control at 70 g/ha: 70 g ai/ha; for pest or weed control at 140 g/ha: 140 g ai/ha
In short: as §1

[3] = Abutilon theophrasti, velvetleaf (Abutilon theophrasti), read-out: Visual Growth Reduction (%) 14 Days After Application, ABUTH
[4] = Amaranthus retroflexus, redroot pigweed (Amaranthus retroflexus), read-out: Visual Growth Reduction (%) 14 Days After Application, AMARE
[5] = Brassica napus, oilseed rape, canola (Brassica napus), read-out: Visual Growth Reduction (%) 14 Days After Application, BRSNN
[6] = Chenopodium album, lambsquarters (Chenopodium album), read-out: Visual Growth Reduction (%) 14 Days After Application, CHEAL
[7] = Euphorbia heterophylla, wild poinsettia (Euphorbia heterophylla), read-out: Visual Growth Reduction (%) 14 Days After Application, EPHHL
[8] = Helianthus annuus, sunflower (Helianthus annuus), read-out: Visual Growth Reduction (%) 14 Days After Application, HELAN
[9] = Cyperus esculentus, yellow nutsedge (Cyperus esculentus), read-out: Visual Growth Reduction (%) 14 Days After Application, CYPES
[10] = Echinochloa crus-galli, barnyardgrass (Echinochloa crus-galli), read-out: Visual Growth Reduction (%) 14 Days After Application, ECHCG
[11] = Oryza sativa, rice (Oryza sativa), read-out: Visual Growth Reduction (%) 14 Days After Application, ORYSA
[12] = Setaria faberi, giant foxtail (Setaria faberi), read-out: Visual Growth Reduction (%) 14 Days After Application, SETFA
[13] = Triticum aestivum, wheat, spring (Triticum aestivum), read-out: Visual Growth Reduction (%) 14 Days After Application, TRZAS
[14] = Zea mays, maize, corn (Zea mays), read-out: Visual Growth Reduction (%) 14 Days After Application, ZEAMX

Structure (SMILES) | pest or weed control at 35 g/ha [1, 3] | pest or weed control at 70 g/ha [1, 3] | pest or weed control at 140 g/ha [1, 3] | pest or weed control at 35 g/ha [1, 4] | pest or weed control at 70 g/ha [1, 4] | pest or weed control at 140 g/ha [1, 4] | pest or weed control at 35 g/ha [1, 5] | pest or weed control at 70 g/ha [1, 5] | pest or weed control at 140 g/ha [1, 5] | pest or weed control at 35 g/ha [1, 6] | pest or weed control at 70 g/ha [1, 6] | pest or weed control at 140 g/ha [1, 6] | pest or weed control at 35 g/ha [1, 7] | pest or weed control at 70 g/ha [1, 7] | pest or weed control at 140 g/ha [1, 7] | pest or weed control at 35 g/ha [1, 8] | pest or weed control at 70 g/ha [1, 8] | pest or weed control at 140 g/ha [1, 8] | pest or weed control at 35 g/ha [2, 9] | pest or weed control at 70 g/ha [2, 9] | further results
Nc1c(F)c(-c2ccc3[nH]ccc3c2)nc(C(=O)O)c1Cl [Compound 1.04] | 45 to 59% | 0 to 29% | 0 to 29% | 60 to 74% | 60 to 74% | 60 to 74% | 30 to 44% | 45 to 59% | 45 to 59% | 45 to 59% | 60 to 74% | 60 to 74% | 95 to 100% | 95 to 100% | 95 to 100% | 45 to 59% | 45 to 59% | 85 to 94% | 0 to 29% | 0 to 29% | pest or weed control at 140 g/ha [2, 9]: 0 to 29%; pest or weed control at 35 g/ha [2, 10]: 0 to 29%; pest or weed control at 140 g/ha [2, 10]: 85 to 94%; pest or weed control at 35 g/ha [2, 11]: 0 to 29%; pest or weed control at 70 g/ha [2, 11]: 0 to 29%; pest or weed control at 140 g/ha [2, 11]: 0 to 29%; pest or weed control at 35 g/ha [2, 12]: 0 to 29%; pest or weed control at 70 g/ha [2, 12]: 0 to 29%; pest or weed control at 140 g/ha [2, 12]: 0 to 29%; pest or weed control at 35 g/ha [2, 13]: 0 to 29%; pest or weed control at 70 g/ha [2, 13]: 0 to 29%; pest or weed control at 140 g/ha [2, 13]: 0 to 29%; pest or weed control at 35 g/ha [2, 14]: 0 to 29%; pest or weed control at 70 g/ha [2, 14]: 0 to 29%; pest or weed control at 140 g/ha [2, 14]: 0 to 29%; melting point: 180 to 182 °C
COC(=O)c1nc(-c2ccc3cc[nH]c3c2)c(Cl)c(N)c1Cl [Compound 1.05] | 45 to 59% | 95 to 100% | 85 to 94% | 60 to 74% | 75 to 84% | 95 to 100% | 30 to 44% | 45 to 59% | 60 to 74% | 85 to 94% | 95 to 100% | 95 to 100% | 30 to 44% | 30 to 44% | 45 to 59% | 95 to 100% | 95 to 100% | 95 to 100% | 0 to 29% | 0 to 29% | pest or weed control at 140 g/ha [2, 9]: 0 to 29%; pest or weed control at 35 g/ha [2, 10]: 0 to 29%; pest or weed control at 70 g/ha [2, 10]: 0 to 29%; pest or weed control at 140 g/ha [2, 10]: 60 to 74%; pest or weed control at 35 g/ha [2, 11]: 0 to 29%; pest or weed control at 70 g/ha [2, 11]: 0 to 29%; pest or weed control at 140 g/ha [2, 11]: 0 to 29%; pest or weed control at 35 g/ha [2, 12]: 30 to 44%; pest or weed control at 70 g/ha [2, 12]: 45 to 59%; pest or weed control at 140 g/ha [2, 12]: 60 to 74%; pest or weed control at 35 g/ha [2, 13]: 0 to 29%; pest or weed control at 70 g/ha [2, 13]: 30 to 44%; pest or weed control at 140 g/ha [2, 13]: 45 to 59%; pest or weed control at 35 g/ha [2, 14]: 0 to 29%; pest or weed control at 70 g/ha [2, 14]: 30 to 44%; pest or weed control at 140 g/ha [2, 14]: 45 to 59%; melting point: 174 to 179 °C
